Test results published in US20110039721A1, “METHOD FOR PREDICTION ABOUT CARCINOGENICITY OF SUBSTANCE IN RODENT” (Chemicals Evaluation and Research Institute, priority 2007, published 2011).

Key:
[1] = tested on: mRNA expressed from the genes (A) to (D) in rat liver; assay: Behavior of genes (mRNA expression level, oligo-DNA microarray) in rat liver after 28-day oral administration; type: in vivo
Summary of the method: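 Liver mRNA measured by oligo-DNA microarray after 28 days of once-daily oral gavage in 5-week-old male F344 rats (n=4 per group), with vehicle controls given equal solvent volume. Significance threshold: 1.5-fold up or down versus control, with changes opposite in direction to other carcinogens counted as not significant.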

liver = conditions: in vivo; cited from earlier work
rodent = conditions: in vivo; cited from earlier work

## OCCCl [TS032, 2-Chloroethanol]
[1]; rat, in vivo
  Behavior of gene caused by administration of chemical substance, Gene No. 154: −
  Behavior of gene caused by administration of chemical substance, Gene No. 533: −
  Behavior of gene caused by administration of chemical substance, Gene No. 725: −
  Behavior of gene caused by administration of chemical substance, Gene No. 813: −
  Behavior of gene caused by administration of chemical substance, Gene No. 893: −
  Behavior of gene caused by administration of chemical substance, Gene No. 1119: −
  Behavior of gene caused by administration of chemical substance, Gene No. 1131: −
  Behavior of gene caused by administration of chemical substance, Gene No. 1163: −
  Behavior of gene caused by administration of chemical substance, Gene No. 1334: −
  Behavior of gene caused by administration of chemical substance, Gene No. 1494: −
  Behavior of gene caused by administration of chemical substance, Gene No. 1562: −
  Behavior of gene caused by administration of chemical substance, Gene No. 1741: −
  Behavior of gene caused by administration of chemical substance, Gene No. 1993: −
  Behavior of gene caused by administration of chemical substance, Gene No. 2026: −
  Behavior of gene caused by administration of chemical substance, Gene No. 2045: −
  Behavior of gene caused by administration of chemical substance, Gene No. 2203: −
  Behavior of gene caused by administration of chemical substance, Gene No. 2494: −
  Behavior of gene caused by administration of chemical substance, Gene No. 2546: −
  Behavior of gene caused by administration of chemical substance, Gene No. 3776: −
  Behavior of gene caused by administration of chemical substance, Gene No. 3929: −
  Behavior of gene caused by administration of chemical substance, Gene No. 4095: −
  Behavior of gene caused by administration of chemical substance, Gene No. 4218: −
  Behavior of gene caused by administration of chemical substance, Gene No. 4846: −
  Behavior of gene caused by administration of chemical substance, Gene No. 4973: −
  Behavior of gene caused by administration of chemical substance, Gene No. 5600: −
  Behavior of gene caused by administration of chemical substance, Gene No. 5634: −
  Behavior of gene caused by administration of chemical substance, Gene No. 5726: −
  Behavior of gene caused by administration of chemical substance, Gene No. 5878: −
  Behavior of gene caused by administration of chemical substance, Gene No. 6026: −
  Behavior of gene caused by administration of chemical substance, Gene No. 6182: −
  Behavior of gene caused by administration of chemical substance, Gene No. 6303: −
  Behavior of gene caused by administration of chemical substance, Gene No. 6620: −
  Behavior of gene caused by administration of chemical substance, Gene No. 6742: −
liver
  Liver carcinogenicity: Cr−
rodent
  Carcinogenicity: C−

## Nc1ccc(N=Nc2ccccc2)cc1 [TS075, 4-Aminoazobenzene]
[1]; Gene No. 154, Rn.185941, group (C)
  Behavior of gene caused by administration of chemical substance: −
[1]; Gene No. 533, Rn.106184, group (C)
  Behavior of gene caused by administration of chemical substance: −
[1]; Gene No. 725, Rn.108075, group (C)
  Behavior of gene caused by administration of chemical substance: −
[1]; Gene No. 813, Rn.201760, group (C)
  Behavior of gene caused by administration of chemical substance: −
[1]; Gene No. 893, Rn.164817, group (C)
  Behavior of gene caused by administration of chemical substance: +
[1]; Gene No. 1119, Rn.9757, group (C)
  Behavior of gene caused by administration of chemical substance: −
[1]; Gene No. 1131, Rn.144946, group (C)
  Behavior of gene caused by administration of chemical substance: −
[1]; Gene No. 1163, Rn.11766, group (C)
  Behavior of gene caused by administration of chemical substance: +
[1]; Gene No. 1334, Rn.120914, group (C)
  Behavior of gene caused by administration of chemical substance: −
[1]; Gene No. 1494, Rn.1430, group (B)
  Behavior of gene caused by administration of chemical substance: −
[1]; Gene No. 1562, Rn.14744, group (C)
  Behavior of gene caused by administration of chemical substance: −
[1]; Gene No. 1741, Rn.1647, group (C)
  Behavior of gene caused by administration of chemical substance: −
[1]; Gene No. 1993, Rn.18728, group (C)
  Behavior of gene caused by administration of chemical substance: +
[1]; Gene No. 2026, Rn.167075, group (A)
  Behavior of gene caused by administration of chemical substance: −
[1]; Gene No. 2045, Rn.19329, group (B)
  Behavior of gene caused by administration of chemical substance: −
[1]; Gene No. 2203, Rn.21240, group (B)
  Behavior of gene caused by administration of chemical substance: +
[1]; Gene No. 2494, Rn.23969, group (C)
  Behavior of gene caused by administration of chemical substance: −
[1]; Gene No. 2546, Rn.24561, group (C)
  Behavior of gene caused by administration of chemical substance: +
[1]; Gene No. 3776, Rn.43232, group (C)
  Behavior of gene caused by administration of chemical substance: −
[1]; Gene No. 3929, Rn.4620, group (C)
  Behavior of gene caused by administration of chemical substance: +
[1]; Gene No. 4095, Rn.119024, group (C)
  Behavior of gene caused by administration of chemical substance: +
[1]; Gene No. 4218, Rn.167075, group (A)
  Behavior of gene caused by administration of chemical substance: −
[1]; Gene No. 4846, Rn.144554, group (A)
  Behavior of gene caused by administration of chemical substance: −
[1]; Gene No. 4973, Rn.118529, group (C)
  Behavior of gene caused by administration of chemical substance: +
[1]; Gene No. 5600, Rn.9836, group (A)
  Behavior of gene caused by administration of chemical substance: −
[1]; Gene No. 5634, Rn.9862, group (C)
  Behavior of gene caused by administration of chemical substance: −
[1]; Gene No. 5726, Rn.9939, group (D)
  Behavior of gene caused by administration of chemical substance: −
[1]; Gene No. 5878, Rn.143213, group (C)
  Behavior of gene caused by administration of chemical substance: −
[1]; Gene No. 6026, Rn.167685, group (C)
  Behavior of gene caused by administration of chemical substance: −
[1]; Gene No. 6182, Rn.5834, group (A)
  Behavior of gene caused by administration of chemical substance: −
[1]; Gene No. 6303, Rn.123063, group (C)
  Behavior of gene caused by administration of chemical substance: −
[1]; Gene No. 6620, Rn.120914, group (C)
  Behavior of gene caused by administration of chemical substance: −
[1]; Gene No. 6742, Rn.9779, group (C)
  Behavior of gene caused by administration of chemical substance: −
liver
  Liver carcinogenicity: Cr+
rodent
  Carcinogenicity: C+
